In US12185723B2, “Herbicidally active 3-phenylisoxazoline-5-carboxamides of s-containing cyclopentenylcarboxylic esters” (Bayer Aktiengesellschaft, priority 2019, dated 2025):

Columns and labels:
Format in all cases: in vivo
Alopecurus myosuroides = experiment: Post-emergence herbicidal action against ALOMY; details: visual rating about 3 weeks after treatment
In short: (§1)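 Weeds sown in sandy loam, greenhouse-grown 2 to 3 weeks and treated at the one-leaf stage. Compounds formulated as WP or EC were sprayed onto green parts as aqueous suspension/emulsion with 0.5% additive at 600 l/ha water. Activity rated visually after about 3 weeks versus untreated controls (100% = plants dead, 0% = like control).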

Avena fatua = experiment: Post-emergence herbicidal action against AVEFA; details: visual rating about 3 weeks after treatment
In short: as §1

DIGSA = experiment: Post-emergence herbicidal action against DIGSA; details: visual rating about 3 weeks after treatment
In short: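 Greenhouse-grown plants sprayed at one-leaf stage (2–3 weeks after sowing) with WP or EC formulations as aqueous suspension/emulsion plus 0.5% additive, 600 l/ha water. Activity rated visually about 3 weeks later versus untreated controls, 100% = plants dead, 0% = like controls.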

Echinochloa crus-galli = experiment: Post-emergence herbicidal action against ECHCG; details: visual rating about 3 weeks after treatment
In short: as §1

Lolium rigidum = experiment: Post-emergence herbicidal action against LOLRI; details: visual rating about 3 weeks after treatment
In short: as §1

Setaria viridis = experiment: Post-emergence herbicidal action against SETVI; details: visual rating about 3 weeks after treatment
In short: as §1

Abutilon theophrasti = experiment: Post-emergence herbicidal action against ABUTH; details: 80 g a.i./ha, visual rating about 3 weeks after treatment
In short: as §1

Amaranthus retroflexus = experiment: Post-emergence herbicidal action against AMARE
In short: as §1

Matricaria inodora = experiment: Post-emergence herbicidal action against MATIN
In short: as §1

Pharbitis purpurea = experiment: Post-emergence herbicidal action against PHBPU; details: 80 g a.i./ha
In short: as §1

Polygonum convolvulus = experiment: Post-emergence herbicidal action against POLCO
In short: as §1

Stellaria media = experiment: Post-emergence herbicidal action against STEME
In short: as §1

Viola tricolor = experiment: Post-emergence herbicidal action against VIOTR
In short: as §1

Veronica persica = experiment: Post-emergence herbicidal action against VERPE
In short: as §1

Hordeum murinum = experiment: Post-emergence herbicidal action against HORMU
In short: as §1

[1] = 80 g a.i./ha, visual rating about 3 weeks after treatment

Structure (SMILES): CSCCOC(=O)C1C=CC(NC(=O)C2(CCl)CC(c3cc(F)cc(F)c3)=NO2)C1 (stereo not shown) [Example I-31]
- Herbicidal action against [%] ALOMY (Alopecurus myosuroides; 20 g a.i./ha): 90%
- Herbicidal action against [%] ALOMY (Alopecurus myosuroides; 80 g a.i./ha): 90%
- Herbicidal action against [%] AVEFA (Avena fatua; 20 g a.i./ha): 90%
- Herbicidal action against [%] AVEFA (Avena fatua; 80 g a.i./ha): 90%
- Herbicidal action against [%] DIGSA (DIGSA; 20 g a.i./ha): 90%
- Herbicidal action against [%] DIGSA (DIGSA; 80 g a.i./ha): 90%
- Herbicidal action against [%] ECHCG (Echinochloa crus-galli; 20 g a.i./ha): 90%
- Herbicidal action against [%] ECHCG (Echinochloa crus-galli; 80 g a.i./ha): 90%
- Herbicidal action against [%] LOLRI (Lolium rigidum; 20 g a.i./ha): 90%
- Herbicidal action against [%] LOLRI (Lolium rigidum; 80 g a.i./ha): 90%
- Herbicidal action against [%] SETVI (Setaria viridis; 20 g a.i./ha): 80%
- Herbicidal action against [%] SETVI (Setaria viridis; 80 g a.i./ha): 90%
- Herbicidal action against [%] ABUTH (Abutilon theophrasti): 80%
- Herbicidal action against [%] AMARE (Amaranthus retroflexus; 20 g a.i./ha): 80%
- Herbicidal action against [%] AMARE (Amaranthus retroflexus; [1]): 80%
- Herbicidal action against [%] MATIN (Matricaria inodora; 20 g a.i./ha): 80%
- Herbicidal action against [%] MATIN (Matricaria inodora; [1]): 80%
- Herbicidal action against [%] PHBPU (Pharbitis purpurea): 90%
- Herbicidal action against [%] POLCO (Polygonum convolvulus; 20 g a.i./ha): 90%
- Herbicidal action against [%] POLCO (Polygonum convolvulus; 80 g a.i./ha): 90%
- Herbicidal action against [%] STEME (Stellaria media; 20 g a.i./ha): 80%
- Herbicidal action against [%] STEME (Stellaria media; 80 g a.i./ha): 80%
- Herbicidal action against [%] VIOTR (Viola tricolor; 20 g a.i./ha): 80%
- Herbicidal action against [%] VIOTR (Viola tricolor; 80 g a.i./ha): 80%
- Herbicidal action against [%] VERPE (Veronica persica; 20 g a.i./ha): 80%
- Herbicidal action against [%] VERPE (Veronica persica; 80 g a.i./ha): 80%
- Herbicidal action against [%] HORMU (Hordeum murinum; 20 g a.i./ha): 90%
- Herbicidal action against [%] HORMU (Hordeum murinum; 80 g a.i./ha): 90%
